Test results: patent publication US20110244058A1, “Compositions and methods for treatment of pulmonary diseases and conditions” (priority 2008, published 2011)
Values after ≈ are worked out from the molar mass of the structure shown. Like-named read-outs stand apart in the source and are kept apart here.

Key:
[1] = test system: mice with LPS-induced sepsis; conditions: eight mice per group; intranasal drip pulmonary delivery at 0, 6, 23.5 hr; LPS 50 μg at 24 hour; control three out of eight died
Procedure: In all three groups, LPS-induced sepsis was caused by delivery of highly concentrated LPS (50 μg) at 24 hour. […] In the steroid-treated mice, an inhaled corticosteroid (ICS) was delivered for 5 minutes through intranasal drip pulmonary delivery at 0 hr, 6 hr, and 23.5 hr. In the control group, no drug was administered prior to inducing LPS sepsis.

[2] = test system: Brown Norway (BN) rats sensitized to ragweed pollen extract; conditions: aerosolized 0.05% brimonidine or 0.005% dexmedetomidine for 10 minutes before ragweed extract, FIG. 3
Procedure: The control group rats were pretreated with aerosolized saline and administered aerosolized saline. The saline group rats were pretreated with aerosolized saline, then exposed to aerosolized ragweed extract for 10 minutes.
At 10 minutes after completion of the allergen exposure, rats were anesthetized and exsanguinated, and their lungs were lavaged with 50 ml of buffer solution. The resulting bronchoalveolar lavage (BAL) fluid was centrifuged to remove the cells, and the supernatants were analyzed for albumin concentration using an ELISA assay for rat albumin.

[3] = Ionization as a function of pH; assay type: physicochemical
Text: At a lower pH and a lower lipophilicity, bronchial mucosal membrane retention time is maximized and mucosal penetration is reduced. More of a drug is washed away and less is absorbed into lung parenchyma increasing the surface mucosal effect. The higher the lipophilicity, the greater is the selective α-2 agonist's penetration through the lipophilic mucosal cell membranes. This is because at a more alkaline pH, more of the compound is present in a non-ionized form.
When a selective α-2 agonist is lipophilic, it becomes highly ionized as it enters the distal esophagus and stomach. […] Thus, it is very poorly absorbed in lipophilic membranes of the gastrointestinal tract and therefore, results in less systemic absorption.

[4] = Text: The terms “salt” and “constituent of a balanced salt solution” are used interchangeably for the purposes of the present invention. They are a subset of agents that improve solubility of the inventive formulations.
[5] = remark: listed apart in the source
Text: The doses are estimates only, assuming less than 20% nebulized DTL (dose to lung).

Remark: listed apart in the source
[6] = test system: α-2 over α-1 adrenergic receptors; conditions: cited from earlier work
[7] = cited from earlier work

Question: Which “deaths because of LPS-induced sepsis” value [1] does the source give for `Brc1c(NC2=NCCN2)ccc2nccnc12.O=C(O)C(O)C(O)C(=O)O` [brimonidine, 5-bromo-6-(2-imidazolin-2-ylamino)quinoxaline D-tartrate] here?
Answer: Its value is “no animals died”.

Question: What about the “BAL albumin concentration after ragweed exposure” value [2] of the same compound?
Answer: Its value is “no apparent protective effect”.

Question: For `Cc1cccc([C@H](C)c2cnc[nH]2)c1C` [dexmedetomidine], which ionized ([3]; in pharynx (pH is about 6.8)) is on record?
Answer: The ionized was “about 65%”.

Question: What about the ionized ([3]; in stomach (pH of less than 5.0)) of the same compound?
Answer: Its ionized is ~100%.

Question: What about the ionized ([3]; lungs and airways, pH about 7.4 to 7.8) of the same compound?
Answer: The ionized was 10-23%.

Question: And the ionized ([3]; pH of 6.7)?
Answer: The ionized was “about 65%”.

Question: What about the non-ionized ([3]; pH of 6.7) of the same compound?
Answer: Its non-ionized is “about 35%”.

Question: What about the ionized ([3]; pH of 8.0 or greater) of the same compound?
Answer: The ionized was “about 10%”.

Question: What about the non-ionized ([3]; pH of 8.0 or greater) of the same compound?
Answer: The non-ionized was “about 90%”.

Question: And the “max soluble concentration, BSS solution” value ([4]; pH 7)?
Answer: The value was “≧0.10%”.

Question: And the “soluble concentration with constituents of a balanced salt solution” value ([4]; pH 7.1)?
Answer: The value was ≥ 0.1%.

Question: What about the wheeze-auscultation score ([5]; nebulized 0.03% at pH 5.0, reduced from baseline 10, scale for mild asthma) of the same compound?
Answer: The wheeze-auscultation score was “about 5”.

Question: And the “lung effects (wheeze and airway resistance versus baseline)” value ([5]; nebulized 0.03% at pH 8.0, versus pH 5.0)?
Answer: The value was “the lung effects are greater”.

Question: And the max soluble concentration (pH 6)?
Answer: Its max soluble concentration is 0.195%.

Question: What about the max soluble concentration (pH 6.4) of the same compound?
Answer: The max soluble concentration was 0.060%.

Question: What about the max soluble concentration (pH 7) of the same compound?
Answer: The max soluble concentration was 0.023%.

Question: What about the max soluble concentration (pH 7.4) of the same compound?
Answer: Its max soluble concentration is 0.015%.

Question: And the max soluble concentration (pH 8)?
Answer: Its max soluble concentration is 0.013%.

Question: What about the “BAL albumin concentration after ragweed exposure” value [2] of the same compound?
Answer: Its value is “albumin levels similar to those of control rats”.

Question: And the solubility (physchem; pH 6, aqueous buffer)?
Answer: The solubility was 1950 µg/mL (≈ 9750 µM).

Question: What about the solubility (physchem; pH 6.4, aqueous buffer) of the same compound?
Answer: The solubility was ~600 µg/mL (≈ 3000 µM).

Question: And the solubility (physchem; pH 7, aqueous buffer)?
Answer: Its solubility is 224 µg/mL (≈ 1120 µM).

Question: What about the solubility (physchem; pH 7.4, aqueous buffer) of the same compound?
Answer: Its solubility is ~150 µg/mL (≈ 749 µM).

Question: What about the solubility (physchem; pH 8, aqueous buffer) of the same compound?
Answer: Its solubility is 134 µg/mL (≈ 669 µM).

Question: And the α2/α1 selectivity [6]?
Answer: Its α2/α1 selectivity is “over 1,500”.

Question: Which ionization ([3]; pH of about 8.5) does the source give for `CNC1(c2ccccc2Cl)CCCCC1=O` (stereo not drawn) [ketamine] here?
Answer: Its ionization is “about 10%”.

Question: And the ionization ([3]; physiologic pH)?
Answer: The ionization was “over 60%”.

Question: And the “plasma level at which dissociative changes have been documented” value ([7]; in vivo)?
Answer: The value was ≤ 1000 ng/mL.

Question: What about the “plasma level at which sedation occurs” value ([7]; in vivo) of the same compound?
Answer: Its value is “about 9000 μg/L”.

Question: What about the “plasma levels with prior art inhalation forms” value ([7]; inhalation) of the same compound?
Answer: The value was “over 800 ug/L”.
